In patent US8541407B2 (ArQule, Inc., priority 2010, dated 2013):
Structures can show the parent of a compound that is named as a salt.

Biological target: AKT1 (Homo sapiens (Human), UniProt P31749)
Assay: Inactive Akt Alpha Screen Assay
Conditions: non *labeled: Akt Alpha Screen assay; read-out: AKT1 biochemical assay, IC50
Method: AKT1 activity was assayed using the GSK3-derived biotinylated peptide substrate, crosstide (biotin-[…]), and AlphaScreen™ (Amplified Luminescent Proximity Homogeneous Assay) technology. AKT1 activation was achieved by the addition of the activating kinases PDK1 and MAPKAPK2, lipid vesicles, and ATP. The extent of peptide phosphorylation was determined using a phospho-AKT substrate antibody and acceptor beads conjugated to Protein A and donor beads conjugated to streptavidin that bind to the biotin on the peptide. Excitation of the donor beads converted ambient oxygen to excited singlet oxygen which, when in close proximity to acceptor beads, reacted with acceptor beads resulting in signal amplification. […] The plates were incubated for 30 minutes at room temperature, and then stopped in the dark by the addition of 10 μL stop/detection mixture prepared in assay buffer containing EDTA, AlphaScreen™ Streptavidin Donor and Protein A Acceptor beads, and phospho-AKT substrate antibody for final concentrations of 10 mM EDTA, 500 ng/well of both AlphaScreen™ Streptavidin Donor beads and Protein A Acceptor beads, and phospho-AKT substrate antibody at a final dilution of 1:350. Assay plates were incubated for 90 minutes at room temperature in the dark, and the plates were read on a Perkin Elmer Envision Multilabel plate reader (excitation wavelength: […], emission wavelength: 570 nm). […] Envision Instrument Settings: • Instrument: Perkin Elmer Envision • Plate: 96 well • Program Name: • Excitation: Ex Top • Mirror: General Dual—Slot 2 • Excitation Filter: CFP430 Ex.

AKT1, sequence (P31749 whole entry): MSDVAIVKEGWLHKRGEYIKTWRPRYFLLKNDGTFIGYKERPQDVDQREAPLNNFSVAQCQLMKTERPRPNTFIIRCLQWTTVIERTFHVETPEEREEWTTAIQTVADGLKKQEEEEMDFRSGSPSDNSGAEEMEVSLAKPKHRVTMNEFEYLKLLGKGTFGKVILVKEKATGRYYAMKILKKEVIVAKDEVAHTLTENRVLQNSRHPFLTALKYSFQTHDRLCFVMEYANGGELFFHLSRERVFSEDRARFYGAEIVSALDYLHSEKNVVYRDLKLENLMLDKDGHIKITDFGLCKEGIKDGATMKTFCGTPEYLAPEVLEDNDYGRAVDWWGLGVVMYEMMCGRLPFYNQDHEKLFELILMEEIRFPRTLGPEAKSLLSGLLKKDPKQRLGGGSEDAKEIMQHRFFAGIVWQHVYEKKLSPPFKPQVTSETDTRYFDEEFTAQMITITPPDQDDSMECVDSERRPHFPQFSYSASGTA

| SMILES | IC50 [nM] |
| --- | --- |
| O=C(Cc1ccccc1)N1CCN(Cc2ccc(-c3nnc4n3-c3cccnc3Nc3ccccc3-4)cc2)CC1 [Example 140, 1-(4-(4-(9H-benzo[f]pyrido[2,3-b][1,2,4]triazolo[4,3-d][1,4]diazepin-3-yl)benzyl)piperazin-1-yl)-2-phenylethanone] | 6000 |
| Clc1ccc(-c2nnc3n2-c2cccnc2Nc2ccccc2-3)cc1Cl [Example 13, hydrochloride] | 5100 |
| OCC1CCN(Cc2ccc(-c3nnc4n3-c3cccnc3Nc3ccccc3-4)cc2)CC1 [Example 76, (1-(4-(9H-benzo[f]pyrido[2,3-b][1,2,4]triazolo[4,3-d][1,4]diazepin-3-yl)benzyl)piperidin-4-yl)methanol] | 8300 |
| Nc1ccc(-c2nnc3n2-c2cccnc2Nc2ccccc2-3)cn1 [Example 5, hydrochloride] | 2100 |
| O=C(NC1(c2ccc(-c3nnc4n3-c3ccc(Cl)nc3Nc3ccccc3-4)cc2)CCC1)C(F)(F)F [Example 226, N-(1-(4-(7-chloro-9H-benzo[f]pyrido[2,3-b][1,2,4]triazolo[4,3-d][1,4]diazepin-3-yl)phenyl)cyclobutyl)-2,2,2-trifluoroacetamide] | 9300 |
| O=C(Nc1ccc(-c2nnc3n2-c2cccnc2Nc2ccccc2-3)cc1)c1ccc(F)c(C(F)(F)F)c1 [Example 46, N-(4-(9H-benzo[f]pyrido[2,3-b][1,2,4]triazolo[4,3-d][1,4]diazepin-3-yl)phenyl)-4-fluoro-3-(trifluoromethyl)benzamide] | 5300 |
| Cc1ccc(-c2nnc3n2-c2cccnc2Nc2ccccc2-3)cc1 [Example 6, hydrochloride] | 13000 |
| COCCNCc1ccc(-c2nnc3n2-c2cccnc2Nc2ccccc2-3)cc1 [Example 73, N-(4-(9H-benzo[f]pyrido[2,3-b][1,2,4]triazolo[4,3-d][1,4]diazepin-3-yl)benzyl)-2-methoxyethanamine] | 4600 |
| CCCN(C)Cc1ccc(-c2nnc3n2-c2cccnc2Nc2ccccc2-3)cc1 [Example 90, N-(4-(9H-benzo[f]pyrido[2,3-b][1,2,4]triazolo[4,3-d][1,4]diazepin-3-yl)benzyl)-N-methylpropan-1-amine] | 2500 |
| Nc1cc(-c2nnc3n2-c2cccnc2Nc2ccccc2-3)ccn1 [Example 3, 4-(9H-benzo[f]pyrido[2,3-b][1,2,4]triazolo[4,3-d][1,4]diazepin-3-yl)pyridin-2-amine] | 13000 |
| c1ccc2c(c1)Nc1ncccc1-n1c(-c3ccc(CNCC4CC4)cc3)nnc1-2 [Example 93, N-(4-(9H-benzo[f]pyrido[2,3-b][1,2,4]triazolo[4,3-d][1,4]diazepin-3-yl)benzyl)-1-cyclopropylmethanamine] | 6700 |
| c1ccc2c(c1)Nc1ncccc1-n1c(-c3ccc4ccccc4c3)nnc1-2 [hydrochloride] | 29000 |
| COc1cccc(C(=O)N2CCN(Cc3ccc(-c4nnc5n4-c4cccnc4Nc4ccccc4-5)cc3)CC2)c1 [Example 138, (4-(4-(9H-benzo[f]pyrido[2,3-b][1,2,4]triazolo[4,3-d][1,4]diazepin-3-yl)benzyl)piperazin-1-yl)(3-methoxyphenyl)methanone] | 2200 |
| Cc1ccc(CN2CCN(Cc3ccc(-c4nnc5n4-c4cccnc4Nc4ccccc4-5)cc3)CC2)cc1 [Example 91, 3-(4-((4-(4-methylbenzyl)piperazin-1-yl)methyl)phenyl)-9H-benzo[f]pyrido[2,3-b][1,2,4]triazolo[4,3-d][1,4]diazepine] | 2800 |
| O=C(Nc1ccc(-c2nnc3n2-c2cccnc2Nc2ccccc2-3)cc1)c1cc(C(F)(F)F)cc(C(F)(F)F)c1 [Example 29, N-(4-(9H-benzo[f]pyrido[2,3-b][1,2,4]triazolo[4,3-d][1,4]diazepin-3-yl)phenyl)-3,5-bis(trifluoromethyl)benzamide] | 2500 |
| c1ccc(CCNC2(c3ccc(-c4nnc5n4-c4cccnc4Nc4ccccc4-5)cc3)CCC2)cc1 [Example 229, 1-(4-(9H-benzo[f]pyrido[2,3-b][1,2,4]triazolo[4,3-d][1,4]diazepin-3-yl)phenyl)-N-phenethylcyclobutanamine] | 3800 |
| O=S(=O)(NC1CCN(Cc2ccc(-c3nnc4n3-c3cccnc3Nc3ccccc3-4)cc2)CC1)c1cccc(F)c1 [Example 157, N-(1-(4-(9H-benzo[f]pyrido[2,3-b][1,2,4]triazolo[4,3-d][1,4]diazepin-3-yl)benzyl)piperidin-4-yl)-3-fluorobenzenesulfonamide] | 2700 |
| O=C(c1ccccc1)N1CCN(Cc2ccc(-c3nnc4n3-c3cccnc3Nc3ccccc3-4)cc2)CC1 [Example 144, (4-(4-(9H-benzo[f]pyrido[2,3-b][1,2,4]triazolo[4,3-d][1,4]diazepin-3-yl)benzyl)piperazin-1-yl)(phenyl)methanone] | 1900 |
| O=C(c1ccco1)N1CCN(Cc2ccc(-c3nnc4n3-c3cccnc3Nc3ccccc3-4)cc2)CC1 [Example 92, (4-(4-(9H-benzo[f]pyrido[2,3-b][1,2,4]triazolo[4,3-d][1,4]diazepin-3-yl)benzyl)piperazin-1-yl)(furan-2-yl)methanone] | 1400 |
| COCC(=O)Nc1ccc(-c2nnc3n2-c2cccnc2Nc2ccccc2-3)cc1 [Example 53, N-(4-(9H-benzo[f]pyrido[2,3-b][1,2,4]triazolo[4,3-d][1,4]diazepin-3-yl)phenyl)-2-methoxyacetamide] | 1500 |
| COc1ccc(C(=O)N2CCN(Cc3ccc(-c4nnc5n4-c4cccnc4Nc4ccccc4-5)cc3)CC2)cc1 [Example 137, (4-(4-(9H-benzo[f]pyrido[2,3-b][1,2,4]triazolo[4,3-d][1,4]diazepin-3-yl)benzyl)piperazin-1-yl)(4-methoxyphenyl)methanone] | 1400 |

Now those with a lower IC50, led by results:

| IC50 [nM] | SMILES |
| --- | --- |
| 120 | Cn1ccc(S(=O)(=O)NCc2ccc(-c3nnc4n3-c3cccnc3Nc3ccccc3-4)cc2)n1 [Example 104, N-(4-(9H-benzo[f]pyrido[2,3-b][1,2,4]triazolo[4,3-d][1,4]diazepin-3-yl)benzyl)-1-methyl-1H-pyrazole-3-sulfonamide] |
| 960 | Cc1ccc2c(c1)-c1nnc(-c3ccc(C4(N)CCC4)cc3)n1-c1cccnc1N2 [Example 216, 1-(4-(12-methyl-9H-benzo[f]pyrido[2,3-b][1,2,4]triazolo[4,3-d][1,4]diazepin-3-yl)phenyl)cyclobutanamine] |
| 160 | COc1ccc(C(=O)Nc2ccc(-c3nnc4n3-c3cccnc3Nc3ccccc3-4)cc2)cc1 [Example 31, N-(4-(9H-benzo[f]pyrido[2,3-b][1,2,4]triazolo[4,3-d][1,4]diazepin-3-yl)phenyl)-4-methoxybenzamide] |
| 460 | Cc1cccc(S(=O)(=O)NC2(c3ccc(-c4nnc5n4-c4cccnc4Nc4ccccc4-5)cc3)CCC2)c1 [Example 199, N-(1-(4-(9H-benzo[f]pyrido[2,3-b][1,2,4]triazolo[4,3-d][1,4]diazepin-3-yl)phenyl)cyclobutyl)-3-methylbenzenesulfonamide] |
| 480 | Cc1cccc(NC(=O)NCc2ccc(-c3nnc4n3-c3cccnc3Nc3ccccc3-4)cc2)c1 [Example 125, 1-(4-(9H-benzo[f]pyrido[2,3-b][1,2,4]triazolo[4,3-d][1,4]diazepin-3-yl)benzyl)-3-(m-tolyl)urea] |
| 330 | O=C(Nc1ccc(F)cc1)NC1CCN(Cc2ccc(-c3nnc4n3-c3cccnc3Nc3ccccc3-4)cc2)CC1 [Example 165, 1-(1-(4-(9H-benzo[f]pyrido[2,3-b][1,2,4]triazolo[4,3-d][1,4]diazepin-3-yl)benzyl)piperidin-4-yl)-3-(4-fluorophenyl)urea] |
| 240 | Cn1cnc(S(=O)(=O)NCc2ccc(-c3nnc4n3-c3cccnc3Nc3ccccc3-4)cc2)c1 [Example 103, N-(4-(9H-benzo[f]pyrido[2,3-b][1,2,4]triazolo[4,3-d][1,4]diazepin-3-yl)benzyl)-1-methyl-1H-imidazole-4-sulfonamide] |
| 720 | COc1ccc(C)cc1NC(=O)NC1CCN(Cc2ccc(-c3nnc4n3-c3cccnc3Nc3ccccc3-4)cc2)CC1 [Example 166, 1-(1-(4-(9H-benzo[f]pyrido[2,3-b][1,2,4]triazolo[4,3-d][1,4]diazepin-3-yl)benzyl)piperidin-4-yl)-3-(2-methoxy-5-methylphenyl)urea] |
| 120 | Cc1cc(C(=O)Nc2ccc(-c3nnc4n3-c3cccnc3Nc3ccccc3-4)cc2)no1 [Example 48, N-(4-(9H-benzo[f]pyrido[2,3-b][1,2,4]triazolo[4,3-d][1,4]diazepin-3-yl)phenyl)-5-methylisoxazole-3-carboxamide] |
| 790 | O=C(Nc1cccc(F)c1)NC1CCN(Cc2ccc(-c3nnc4n3-c3cccnc3Nc3ccccc3-4)cc2)CC1 [Example 178, 1-(1-(4-(9H-benzo[f]pyrido[2,3-b][1,2,4]triazolo[4,3-d][1,4]diazepin-3-yl)benzyl)piperidin-4-yl)-3-(3-fluorophenyl)urea] |
| 650 | O=C(Nc1ccc(-c2nnc3n2-c2cccnc2Nc2ccccc2-3)cc1)c1ccc(C(F)(F)F)cc1 [Example 52, N-(4-(9H-benzo[f]pyrido[2,3-b][1,2,4]triazolo[4,3-d][1,4]diazepin-3-yl)phenyl)-4-(trifluoromethyl)benzamide] |
| 220 | O=S(=O)(NCc1ccc(-c2nnc3n2-c2cccnc2Nc2ccccc2-3)cc1)c1cccnc1 [Example 105, N-(4-(9H-benzo[f]pyrido[2,3-b][1,2,4]triazolo[4,3-d][1,4]diazepin-3-yl)benzyl)pyridine-3-sulfonamide] |
